The assay relates to A/NJ/15/2007 (H1N1-H274Y). The assay is classed as cell-based, influenza.

Converted amounts (≈) assume the structure as drawn.

1 compound from US12508266B2 (priority 2010, dated 2025) can be followed below.

`Nc1ncnc2c([C@@H]3N[C@H](CO)[C@@H](O)[C@H]3O)c[nH]c12` [Compound 1, (2S,3S,4R,5R)-2-(4-Amino-5H-pyrrolo[3,2-d]pyrimidin-7-yl)-5-(hydroxymethyl) pyrrolidine-3,4-diol]: the EC50 – broadly, the concentration that produces a half-maximal response – turned out to be 1.39 µg/mL (≈ 5.24 µM).
